Measured values published in article PMC6805867, “Amphiphilic Triazine Polymer Derivatives as Antibacterial And Anti-atopic Agents in Mice Model” (Scientific Reports, 2019).
Converted amounts (≈) assume the structure as drawn.

Tests used:
[1] = test system: Multidrug-resistant Pseudomonas aeruginosa (MDRPA) (CCARM 2095); test: Chequerboard assay (synergy with clinically used antibiotics); format: cell-based; conditions: for FICA (fractional inhibitory concentration of antibiotic): [A]/MICA; for MICA (MIC of antibiotic alone): MDRPA CCARM 2095, 37 °C, 22 h, unit printed only in b27, not in the table; for [A] (MIC of antibiotic in combination): MDRPA CCARM 2095, unit not given
Method: Briefly, 2-fold serial dilutions of each antibiotic and each polymer were prepared and added in a 1:1 volume ratio to the wells of a 96-well plate. An equal volume of bacterial solution (100 μL) at ∼10^6 CFU/mL was then seeded into each well. The plates were incubated in a shaking incubator at 37 °C and 200 rpm and read after 22 h. Bacterial growth was assessed visually or spectrophotometrically via OD600 readings taken by a microplate ELISA reader (Molecular Devices, Sunnyvale, CA, USA). The fractional inhibitory concentration index (FICI) for each drug combination was calculated using the following equation: FICI = FICA + FICB = [A]/MICA + [B]/MICB, where MICA and MICB are the MIC of antibiotic and triazine based monomer (TZP3 or TZP5), respectively, while [A] and [B] are the MIC of antibiotic and triazine based monomer (TZP3 or TZP5) in combination, respectively. FICI of ≤ 0.5 was interpreted as synergy, 0.5 < FICI ≤ 1.0 as additive, 1.0 < FICI ≤ 4.0 as indifferent, and a FICI > 4.0 as antagonism.

[2] = test system: Escherichia coli (KCTC 1682); test: Antimicrobial activity, broth microdilution MIC; format: cell-based; conditions: 2 × 10^6 CFU/mL in 1% peptone, 37 °C, 18–22 h, 100% inhibition of growth, performed three times
Method: (§1) The bacterial strains employed in the experiment were Escherichia coli (KCTC 1682), Pseudomonas aeruginosa (KCTC 1637), Bacillus subtilis (KCTC 3068), Staphylococcus aureus (KCTC 1621), three methicillin-resistant Staphylococcus aureus (CCARM 3089, 3090 and 3095), two multidrug-resistant Pseudomonas aeruginosa (CCARM 2095 and 2109) and vancomycin-resistant Enterococcus faecium (ATCC 51559). The antimicrobial activities of polymers were determined by the broth microdilution method, and the procedures were used as previously reported. Briefly, bacteria grown to mid-logarithmic phase in LB broth were diluted to 2 × 10^6 CFU/mL in 1% peptone and added to serial two-fold dilutions of different polymers ranging from 1 to 64 μg/mL. The plates were incubated in a shaking incubator at 37 °C for 18–22 h. The minimum inhibitory concentration (MIC) was determined by confirming the absence of bacterial growth both visually and spectrophotometrically by OD600 readings taken by a microplate ELISA reader (Molecular Devices, Sunnyvale, CA, USA). All measurements were performed three times.

[3] = test system: Staphylococcus aureus (KCTC 1621); test: Antimicrobial activity, broth microdilution MIC; format: cell-based; conditions: 2 × 10^6 CFU/mL in 1% peptone, 37 °C, 18–22 h, 100% inhibition of growth, performed three times
Method: as §1

[4] = test system: Bacillus subtilis (KCTC 3068); test: Antimicrobial activity, broth microdilution MIC; format: cell-based; conditions: 2 × 10^6 CFU/mL in 1% peptone, 37 °C, 18–22 h, 100% inhibition of growth, performed three times
Method: as §1

[5] = test system: Pseudomonas aeruginosa (KCTC 1637); test: Antimicrobial activity, broth microdilution MIC; format: cell-based; conditions: 2 × 10^6 CFU/mL in 1% peptone, 37 °C, 18–22 h, 100% inhibition of growth, performed three times
Method: as §1

[6] = test system: selected bacterial strains; test: Geometric mean of MIC values over the bacterial strains; format: cell-based; conditions: geometric mean of MIC values from selected six bacterial strains (footnote b)
Method: as §1

trypsin = test: Protease stability, radial diffusion assay after tryptic digestion; format: in vitro ADME; conditions: trypsin 0.2 μg/mL in PBS, 37 °C (24 h, 4 h elsewhere in the source), clearance zones against E.coli and S.aureus
Method: The protease stability of triazine based polymers (TZP3 and TZP5) was performed by the radial diffusion assay as described previously. Briefly, a bacteria suspension (2×10^6 CFU/mL in LB) was mixed with 0.7% agarose. This mixture was poured into a 10-cm petri dish, and it dispersed rapidly. […] The reaction was stopped by freezing with liquid nitrogen, after which 10 μL aliquots were placed in each circle paper, put on the agarose plates, and then incubated at 37 °C overnight. The diameters of the bacterial clearance zones surrounding the circle paper were measured for the quantitation of inhibitory activities.

[7] = test system: Methicillin-resistant Staphylococcus aureus (MRSA) CCARM 3095; format: cell-based; conditions: broth microdilution, 37 °C, 18–22 h
Method: as §1

[8] = test system: Multidrug-resistant Pseudomonas aeruginosa (MDRPA) CCARM 2095; format: cell-based; conditions: broth microdilution, 37 °C, 18–22 h
Method: as §1

[9] = test system: Multidrug-resistant Pseudomonas aeruginosa (MDRPA) CCARM 2109; format: cell-based; conditions: broth microdilution, 37 °C, 18–22 h
Method: as §1

[10] = test system: Methicillin-resistant Staphylococcus aureus (MRSA) CCARM 3090; format: cell-based; conditions: broth microdilution, 37 °C, 18–22 h
Method: as §1

[11] = test system: Methicillin-resistant Staphylococcus aureus (MRSA) CCARM 3089; format: cell-based; conditions: broth microdilution, 37 °C, 18–22 h
Method: as §1

| SMILES | MIC Escherichia coli (KCTC 1682) [2] | MIC Staphylococcus aureus (KCTC 1621) [3] | MIC Bacillus subtilis (KCTC 3068) [4] | MIC Pseudomonas aeruginosa (KCTC 1637) [5] | GM (geometric mean of MIC values) [6] | further results |
| --- | --- | --- | --- | --- | --- | --- |
| O=C(N[C@H](CO)[C@H](O)c1ccc([N+](=O)[O-])cc1)C(Cl)Cl [Chloramphenicol, chloramphenicol, reference compound] |  |  |  |  |  | FICA (fractional inhibitory concentration of antibiotic) ([1]; in combination with TZP3): 0.031; FICA (fractional inhibitory concentration of antibiotic) ([1]; in combination with TZP5): 0.031; MICA (MIC of antibiotic alone) [1]: 512 µM; MICA (MIC of antibiotic alone) ([1]; listed as chloramphenicol): 512−1024 μM; [A] (MIC of antibiotic in combination) ([1]; in combination with TZP3): 16; [A] (MIC of antibiotic in combination) ([1]; in combination with TZP5): 16 |
| Cc1onc(-c2ccccc2)c1C(=O)N[C@@H]1C(=O)N2[C@@H]1SC(C)(C)[C@@H]2C(=O)O [Oxacillin, oxacillin, reference compound] |  |  |  |  |  | FICA (fractional inhibitory concentration of antibiotic) ([1]; in combination with TZP3): 1.0; FICA (fractional inhibitory concentration of antibiotic) ([1]; in combination with TZP5): 1.0; MICA (MIC of antibiotic alone) [1]: 1024 µM; MICA (MIC of antibiotic alone) ([1]; listed as oxacillin): 512−1024 μM; [A] (MIC of antibiotic in combination) ([1]; in combination with TZP3): 1024; [A] (MIC of antibiotic in combination) ([1]; in combination with TZP5): 1024 |
| NCCCN(CCCN)c1nc(N)nc(NCCNc2nc(Cl)nc(N(CCCN)CCCN)n2)n1 [TZP1] | 32 [60.8] μg/mL | 32 [60.8] μg/mL | 64 [121.7] μg/mL | 64 [121.7] μg/mL | 48.0 [91.3] μg/mL |  |
| N=C(N)NCCCN(CCCNC(=N)N)c1nc(N)nc(NCCNc2nc(Cl)nc(N(Cc3ccccc3)Cc3ccccc3)n2)n1 [TZP2] | 2 [3] μg/mL | 2 [3] μg/mL | 2 [3] μg/mL | 8 [11.8] μg/mL | 3.5 [5.2] μg/mL |  |
| NCCCN(CCCN)c1nc(N)nc(NCCNc2nc(NCCNc3nc(Cl)nc(N(Cc4ccccc4)Cc4ccccc4)n3)nc(N(CCCN)CCCN)n2)n1 [TZP4] | 2 [2.3] μg/mL | 2 [2.3] μg/mL | 2 [2.3] μg/mL | 4 [4.7] μg/mL | 2.5 [2.9] μg/mL |  |
| N=C(N)NCCCN(CCCNC(=N)N)c1nc(Cl)nc(NCCNc2nc(NCCNc3nc(N)nc(N(CCCN)CCCN)n3)nc(N(Cc3ccccc3)Cc3ccccc3)n2)n1 [TZP6] | 2 [2.1] μg/mL | 2 [2.1] μg/mL | 2 [2.1] μg/mL | 4 [4.2] μg/mL | 2.5 [2.7] μg/mL |  |
| NCCCN(CCCN)c1nc(N)nc(NCCNc2nc(NCCNc3nc(Cl)nc(N(CCCN)CCCN)n3)nc(N(CCCN)CCCN)n2)n1 [TZP7] | 16 [20.2] μg/mL | 16 [20.2] μg/mL | 8 [10.1] μg/mL | 8 [10.1] μg/mL | 12.0 [15.2] μg/mL |  |
| NCCCN(CCCN)c1nc(NCCNc2nc(N)nc(N(Cc3ccccc3)Cc3ccccc3)n2)nc(NCCNc2nc(Cl)nc(N(Cc3ccccc3)Cc3ccccc3)n2)n1 [TZP8] | 8 [8.7] μg/mL | 8 [8.7] μg/mL | 8 [8.7] μg/mL | >64 [>69.3] μg/mL | 38.0 [41.1] μg/mL |  |
| N=C(N)NCCCN(CCCNC(=N)N)c1nc(N)nc(NCCNc2nc(NCCNc3nc(Cl)nc(N(CCCNC(=N)N)CCCNC(=N)N)n3)nc(N(Cc3ccccc3)Cc3ccccc3)n2)n1 [TZP9] | 2 [1.9] μg/mL | 2 [1.9] μg/mL | 2 [1.9] μg/mL | 8 [7.8] μg/mL | 3.5 [3.4] μg/mL |  |
| N=C(N)NCCCN(CCCNC(=N)N)c1nc(Cl)nc(NCCNc2nc(NCCNc3nc(N)nc(NCCC(c4ccccc4)c4ccccc4)n3)nc(N(CCCNC(=N)N)CCCNC(=N)N)n2)n1 [TZP10] | 4 [3.8] μg/mL | 4 [3.8] μg/mL | 4 [3.8] μg/mL | 16 [15.4] μg/mL | 7.0 [6.7] μg/mL |  |
| N=C(N)NCCCN(CCCNC(=N)N)c1nc(Cl)nc(NCCNc2nc(NCCNc3nc(NCCNc4nc(N)nc(NCCC(c5ccccc5)c5ccccc5)n4)nc(N(CCCNC(=N)N)CCCNC(=N)N)n3)nc(NCCC(c3ccccc3)c3ccccc3)n2)n1 [TZP11] | 8 [9.2] μg/mL | 8 [9.2] μg/mL | 8 [9.2] μg/mL | 16 [18.3] μg/mL | 10.0 µg/mL |  |
| NCCCN(CCCN)c1nc(Cl)nc(NCCNc2nc(NCCNc3nc(NCCNc4nc(N)nc(NCCC(c5ccccc5)c5ccccc5)n4)nc(N(CCCN)CCCN)n3)nc(NCCC(c3ccccc3)c3ccccc3)n2)n1 [TZP12] | 4 [2.9] μg/mL | 4 [2.9] μg/mL | 8 [5.8] μg/mL | 16 [11.5] μg/mL | 8.0 [5.8] μg/mL |  |
| NCCCN(CCCN)c1nc(N)nc(NCCNc2nc(NCCNc3nc(NCCNc4nc(NCCNc5nc(Cl)nc(N(CCCN)CCCN)n5)nc(N(CCCN)CCCN)n4)nc(N(CCCN)CCCN)n3)nc(N(CCCN)CCCN)n2)n1 [TZP13] | 8 [6.6] μg/mL | 8 [6.6] μg/mL | 4 [3.3] μg/mL | 8 [6.6] μg/mL | 7.0 [5.7] μg/mL |  |
| CC[C@H](C)[C@H](NC(=O)CN)C(=O)NCC(=O)N[C@@H](C)C(=O)N[C@H](C(=O)N[C@@H](CC(C)C)C(=O)N[C@@H](CCCCN)C(=O)N[C@H](C(=O)N[C@@H](CC(C)C)C(=O)N[C@H](C(=O)N[C@H](C(=O)NCC(=O)N[C@@H](CC(C)C)C(=O)N1CCC[C@H]1C(=O)N[C@@H](C)C(=O)N[C@@H](CC(C)C)C(=O)N[C@H](C(=O)N[C@@H](CO)C(=O)N[C@@H](Cc1c[nH]c2ccccc12)C(=O)N[C@H](C(=O)N[C@@H](CCCCN)C(=O)N[C@@H](CCCNC(=N)N)C(=O)N[C@@H](CCCCN)C(=O)N[C@@H](CCCNC(=N)N)C(=O)N[C@@H](CCC(N)=O)C(=O)N[C@@H](CCC(N)=O)C(N)=O)[C@@H](C)CC)[C@@H](C)CC)[C@@H](C)O)[C@@H](C)O)C(C)C)C(C)C [melittin, reference compound] |  |  |  |  |  | antibacterial activity after incubation with trypsin (trypsin): lose its antibacterial activity entirely; MIC MRSA CCARM 3095 [7]: 16 µg/mL (≈ 5.62 µM); MIC MDRPA CCARM 2095 [8]: 8 µg/mL (≈ 2.81 µM); MIC MDRPA CCARM 2109 [9]: 8 µg/mL (≈ 2.81 µM); MIC MRSA CCARM 3090 [10]: 8 µg/mL (≈ 2.81 µM); MIC MRSA CCARM 3089 [11]: 8 µg/mL (≈ 2.81 µM) |
